Measurements reported in ChEMBL document CHEMBL1201862, “PubChem BioAssay data set” (2004).
Active and inactive are the calls of the source.

Columns and labels:
[1] = Counterscreen for activators of the function of SWI/SNF related, matrix associated, actin dependent regulator of chromatin, subfamily a, member 2 (SMARCA2, BRM): Luminescence-based cell-based high throughput dose response assay to identify non-selective compounds using the VP16 reporter assay.; assay type: functional
[2] = target: SWI/SNF-related matrix-associated actin-dependent regulator of chromatin subfamily A member 2 (Homo sapiens, UniProt P51531); assay: Luminescence-based cell-based high throughput dose response assay to identify activators of the function of SWI/SNF related, matrix associated, actin dependent regulator of chromatin, subfamily a, member 2 (SMARCA2, BRM).; assay type: functional
[3] = intracellular Trypanosoma cruzi inhibitors in host cells – cell-based, plate reader, cherry-pick samples, set 3, dose response (AID 651818); assay type: functional;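 further: compounds incubated with infected cells for about four days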
HEK293 = assay: inhibitors of LMP1-driven NF-kB reporter, dose response, cell-based, HEK293, luciferase, cherry-pick (AID 588343); assay type: functional; details: Homo sapiens
Streptokinase A = target: T1, Streptokinase A (Streptococcus pyogenes serotype M1, UniProt P10520); assay: S. pyogenes streptokinase expression inhibitors, potency, dose response, plasminogen activation absorbance, OD405 (AID 1914); assay type: functional, Streptococcus pyogenes M1 GAS;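 further: secreted streptokinase activity via plasminogen activation per viability signal from cell pellet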
T1 sequence (P10520 whole entry): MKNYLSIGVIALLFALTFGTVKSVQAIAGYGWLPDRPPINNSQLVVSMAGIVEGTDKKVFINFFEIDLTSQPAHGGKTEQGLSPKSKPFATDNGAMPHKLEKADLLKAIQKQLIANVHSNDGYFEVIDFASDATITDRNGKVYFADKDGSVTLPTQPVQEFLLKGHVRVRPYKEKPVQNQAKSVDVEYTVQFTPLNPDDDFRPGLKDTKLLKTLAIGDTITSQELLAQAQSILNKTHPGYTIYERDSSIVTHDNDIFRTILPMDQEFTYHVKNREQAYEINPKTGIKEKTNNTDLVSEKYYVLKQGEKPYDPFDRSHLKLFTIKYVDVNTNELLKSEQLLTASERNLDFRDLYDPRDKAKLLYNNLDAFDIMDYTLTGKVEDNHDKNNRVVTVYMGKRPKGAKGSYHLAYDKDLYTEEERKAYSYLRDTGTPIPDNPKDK

Streptococcus = assay: Group A Streptococcus viability loss, dose response, counter-screen for streptokinase expression inhibitor project, luminescence, BacTiterGlo (AID 1915); assay type: functional, organism-based;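 further: potency for reduction of bacterial viability or growth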
[4] = tested on: Streptococcus sp. 'group A'; assay: growth inhibition of control SK(-) GAS strain, dose response, counter-screen for streptokinase expression inhibitor project, luminescence, kanamycin, BacTiterGlo, confirmation (AID 1900); assay type: functional, organism-based
[5] = target: T2, Small ubiquitin-related modifier 1 (Homo sapiens, UniProt P63165); assay: inhibitors of SUMO1 peptide binding, dose response, biochemical, fluorescence polarization, uHTS hits (AID 624382); assay type: functional; details: read-out: IC50_Mean
[6] = target: T2, Small ubiquitin-related modifier 1; assay: inhibitors of SUMO1 partner interactions, dose response, biochemical, FRET (AID 624383); assay type: functional; details: read-out: IC50_Mean
Fatty acid synthase = Fatty acid synthase (Homo sapiens, UniProt P49327); assay: FAS thioesterase domain inhibitors, dose response, biochemical, kinetic fluorescence intensity (AID 624326); assay type: functional;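 further: rate of fluorescence rise from hydrolysis of a fluorogenic O-methyl fluorescein ester substrate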
[7] = Fluorescence-based cell-based high throughput dose response assay for inhibitors of the interaction of nucleotide-binding oligomerization domain containing 2 (NOD2) and the receptor-interacting serine-threonine kinase 2 (RIPK2).; assay type: functional; details: Homo sapiens
Paired box protein Pax-8 = Paired box protein Pax-8 (Homo sapiens, UniProt Q06710); assay: inhibitors of PAX8-driven TPO luciferase reporter, dose response, RMG-I cells, cherry-pick (AID 687027); assay type: functional, cell-based;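 further: luciferase reporter driven by Pax8 target thyroperoxidase promoter measured by SteadyGlo luminescence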
[8] = target: T3, DNA repair protein RAD52 homolog (Homo sapiens, UniProt P43351); assay type: functional, biochemical
T3 sequence (P43351 whole entry): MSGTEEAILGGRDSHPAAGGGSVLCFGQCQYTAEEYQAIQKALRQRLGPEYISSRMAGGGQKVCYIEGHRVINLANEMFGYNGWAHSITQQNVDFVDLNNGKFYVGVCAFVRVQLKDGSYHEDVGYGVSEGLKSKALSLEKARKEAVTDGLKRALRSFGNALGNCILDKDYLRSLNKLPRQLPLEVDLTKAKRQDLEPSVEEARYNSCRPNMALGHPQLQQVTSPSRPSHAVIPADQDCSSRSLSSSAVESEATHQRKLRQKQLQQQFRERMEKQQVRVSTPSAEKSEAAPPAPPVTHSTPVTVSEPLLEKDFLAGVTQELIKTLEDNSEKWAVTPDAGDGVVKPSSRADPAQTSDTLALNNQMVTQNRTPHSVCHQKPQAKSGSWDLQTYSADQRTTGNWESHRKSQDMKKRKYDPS

Beta-galactosidase = Beta-galactosidase (Escherichia coli, UniProt Q8VNN2); assay: PubChem AID 485352; assay type: functional
[9] = target: T4, Type-1 angiotensin II receptor (Homo sapiens, UniProt P30556); assay: AT1 receptor antagonists, dose response, selectivity assay for APJ receptor antagonist project, cell-based, uHTS hits (AID 463214); assay type: functional;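 further: antagonist potency against angiotensin II stimulated AT1 response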
T4 sequence (P30556 whole entry): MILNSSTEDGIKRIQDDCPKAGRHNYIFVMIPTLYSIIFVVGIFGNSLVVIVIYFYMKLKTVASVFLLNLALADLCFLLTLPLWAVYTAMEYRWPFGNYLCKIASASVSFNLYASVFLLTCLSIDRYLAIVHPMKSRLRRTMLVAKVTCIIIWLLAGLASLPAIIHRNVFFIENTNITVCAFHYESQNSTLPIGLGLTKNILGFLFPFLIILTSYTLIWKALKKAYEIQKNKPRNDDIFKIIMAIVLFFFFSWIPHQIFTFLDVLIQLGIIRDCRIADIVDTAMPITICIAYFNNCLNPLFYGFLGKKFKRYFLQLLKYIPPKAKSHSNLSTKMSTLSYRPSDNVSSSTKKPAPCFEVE

[10] = target: T5, Corticotropin-releasing factor receptor 2/Corticotropin-releasing factor-binding protein (Homo sapiens, UniProt P24387+Q13324); assay: activators of CRF receptor 2 with binding protein – uHTS hits, confirmation (AID 602473); assay type: functional; details: read-out: EC50_Mean
T5 sequence (Q13324 whole entry): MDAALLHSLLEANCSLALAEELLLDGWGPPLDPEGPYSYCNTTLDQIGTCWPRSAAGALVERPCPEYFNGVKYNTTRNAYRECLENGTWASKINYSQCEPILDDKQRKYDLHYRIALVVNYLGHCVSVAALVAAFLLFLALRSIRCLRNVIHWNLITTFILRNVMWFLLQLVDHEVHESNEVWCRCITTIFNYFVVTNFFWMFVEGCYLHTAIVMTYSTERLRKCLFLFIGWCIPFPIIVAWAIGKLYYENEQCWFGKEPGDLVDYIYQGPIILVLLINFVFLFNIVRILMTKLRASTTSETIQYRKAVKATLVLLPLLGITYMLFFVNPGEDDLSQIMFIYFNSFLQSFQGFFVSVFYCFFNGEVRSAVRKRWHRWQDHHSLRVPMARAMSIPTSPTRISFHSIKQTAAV
T5 sequence (P24387 whole entry): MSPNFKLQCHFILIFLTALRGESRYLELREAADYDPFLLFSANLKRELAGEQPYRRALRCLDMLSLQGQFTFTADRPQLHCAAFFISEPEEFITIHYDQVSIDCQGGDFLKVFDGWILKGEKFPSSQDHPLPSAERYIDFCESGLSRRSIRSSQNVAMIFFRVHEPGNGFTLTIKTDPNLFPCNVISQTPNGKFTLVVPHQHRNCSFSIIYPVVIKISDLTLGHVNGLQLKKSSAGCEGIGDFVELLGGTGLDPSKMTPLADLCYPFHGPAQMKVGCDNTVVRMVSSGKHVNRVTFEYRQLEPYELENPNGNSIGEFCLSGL

[11] = target: T5, Corticotropin-releasing factor receptor 2/Corticotropin-releasing factor-binding protein; assay: Dose Response confirmation of uHTS hits for small molecule antagonists of the CRF-binding protein and CRF-R2 receptor complex.; assay type: functional; details: read-out: IC50_Mean
[12] = target: T6, Heat shock factor protein 1 (Mus musculus, UniProt P38532); assay: HSF1 potentiators in luciferase reporter cells, confirmation, cell-based, NIH3T3, luminescence, dose retest (AID 435004); assay type: functional;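 further: stress induced by proteasome inhibitor MG132 added 30 min after compound; luciferase reporter driven by HSF1 response element in NIH3T3 cells; actives raise luminescence as potentiators of the MG132 stress response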
T6 sequence (P38532 whole entry): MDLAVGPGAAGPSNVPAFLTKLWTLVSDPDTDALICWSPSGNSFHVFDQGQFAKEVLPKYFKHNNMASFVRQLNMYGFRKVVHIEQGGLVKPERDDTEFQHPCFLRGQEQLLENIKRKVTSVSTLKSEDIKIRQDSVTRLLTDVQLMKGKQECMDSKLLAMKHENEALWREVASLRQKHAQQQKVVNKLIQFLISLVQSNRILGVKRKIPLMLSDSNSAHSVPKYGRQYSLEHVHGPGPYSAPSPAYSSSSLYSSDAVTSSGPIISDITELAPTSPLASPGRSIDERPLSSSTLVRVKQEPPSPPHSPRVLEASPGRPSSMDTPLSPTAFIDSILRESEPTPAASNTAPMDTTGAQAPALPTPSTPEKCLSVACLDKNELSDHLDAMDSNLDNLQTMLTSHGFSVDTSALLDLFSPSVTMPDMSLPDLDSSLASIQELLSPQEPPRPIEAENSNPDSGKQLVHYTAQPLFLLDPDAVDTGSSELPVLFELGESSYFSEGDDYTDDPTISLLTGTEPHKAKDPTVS

[13] = Luminescence Cell-Based Dose Retest to Confirm Inhibitors of Cancer Stem Cells. [Related pubchem assays (depositor defined):AID2717, AID2721]; assay type: functional; details: Homo sapiens
Nonstructural protein 1 = Nonstructural protein 1 (Influenza A virus, UniProt Q194T2); assay type: functional, Influenza A virus (A/California/07/2009(H1N1))
Vero = Vero cell cytotoxicity, cytotoxicity control for flavivirus capping enzyme inhibitors (AID 588742); assay type: functional; details: Chlorocebus sabaeus
[14] = target: T7, Sentrin-specific protease 8 (Homo sapiens, UniProt Q96LD8); assay type: functional
T7 sequence (Q96LD8 whole entry): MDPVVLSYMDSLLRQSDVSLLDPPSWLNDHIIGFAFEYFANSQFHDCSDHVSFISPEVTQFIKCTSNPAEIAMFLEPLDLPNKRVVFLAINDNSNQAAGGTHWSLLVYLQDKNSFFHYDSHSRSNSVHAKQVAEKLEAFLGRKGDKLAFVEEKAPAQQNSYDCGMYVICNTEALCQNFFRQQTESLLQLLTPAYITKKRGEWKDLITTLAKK

[15] = target: T7, Sentrin-specific protease 8; assay type: functional; remark: listed apart in the source
[16] = target: T8, Mannose-6-phosphate isomerase (Homo sapiens, UniProt P34949); assay: human PMI inhibitors, high substrate, primary screen, biochemical, fluorescence intensity, high mannose 6-phosphate (AID 1220)
T8 sequence (P34949 whole entry): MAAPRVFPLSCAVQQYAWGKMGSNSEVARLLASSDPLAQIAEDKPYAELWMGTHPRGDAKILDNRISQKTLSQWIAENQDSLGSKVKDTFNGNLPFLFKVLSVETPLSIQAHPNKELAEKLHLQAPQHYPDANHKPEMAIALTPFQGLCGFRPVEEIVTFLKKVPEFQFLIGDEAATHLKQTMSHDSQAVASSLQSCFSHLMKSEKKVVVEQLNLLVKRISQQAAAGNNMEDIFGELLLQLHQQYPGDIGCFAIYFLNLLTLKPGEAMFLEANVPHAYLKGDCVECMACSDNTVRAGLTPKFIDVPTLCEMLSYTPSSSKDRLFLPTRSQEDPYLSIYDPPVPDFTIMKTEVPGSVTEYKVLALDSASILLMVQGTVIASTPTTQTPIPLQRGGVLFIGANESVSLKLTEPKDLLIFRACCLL

Sequence of SWI/SNF-related matrix-associated actin-dependent regulator of chromatin subfamily A member 2 (P51531 whole entry): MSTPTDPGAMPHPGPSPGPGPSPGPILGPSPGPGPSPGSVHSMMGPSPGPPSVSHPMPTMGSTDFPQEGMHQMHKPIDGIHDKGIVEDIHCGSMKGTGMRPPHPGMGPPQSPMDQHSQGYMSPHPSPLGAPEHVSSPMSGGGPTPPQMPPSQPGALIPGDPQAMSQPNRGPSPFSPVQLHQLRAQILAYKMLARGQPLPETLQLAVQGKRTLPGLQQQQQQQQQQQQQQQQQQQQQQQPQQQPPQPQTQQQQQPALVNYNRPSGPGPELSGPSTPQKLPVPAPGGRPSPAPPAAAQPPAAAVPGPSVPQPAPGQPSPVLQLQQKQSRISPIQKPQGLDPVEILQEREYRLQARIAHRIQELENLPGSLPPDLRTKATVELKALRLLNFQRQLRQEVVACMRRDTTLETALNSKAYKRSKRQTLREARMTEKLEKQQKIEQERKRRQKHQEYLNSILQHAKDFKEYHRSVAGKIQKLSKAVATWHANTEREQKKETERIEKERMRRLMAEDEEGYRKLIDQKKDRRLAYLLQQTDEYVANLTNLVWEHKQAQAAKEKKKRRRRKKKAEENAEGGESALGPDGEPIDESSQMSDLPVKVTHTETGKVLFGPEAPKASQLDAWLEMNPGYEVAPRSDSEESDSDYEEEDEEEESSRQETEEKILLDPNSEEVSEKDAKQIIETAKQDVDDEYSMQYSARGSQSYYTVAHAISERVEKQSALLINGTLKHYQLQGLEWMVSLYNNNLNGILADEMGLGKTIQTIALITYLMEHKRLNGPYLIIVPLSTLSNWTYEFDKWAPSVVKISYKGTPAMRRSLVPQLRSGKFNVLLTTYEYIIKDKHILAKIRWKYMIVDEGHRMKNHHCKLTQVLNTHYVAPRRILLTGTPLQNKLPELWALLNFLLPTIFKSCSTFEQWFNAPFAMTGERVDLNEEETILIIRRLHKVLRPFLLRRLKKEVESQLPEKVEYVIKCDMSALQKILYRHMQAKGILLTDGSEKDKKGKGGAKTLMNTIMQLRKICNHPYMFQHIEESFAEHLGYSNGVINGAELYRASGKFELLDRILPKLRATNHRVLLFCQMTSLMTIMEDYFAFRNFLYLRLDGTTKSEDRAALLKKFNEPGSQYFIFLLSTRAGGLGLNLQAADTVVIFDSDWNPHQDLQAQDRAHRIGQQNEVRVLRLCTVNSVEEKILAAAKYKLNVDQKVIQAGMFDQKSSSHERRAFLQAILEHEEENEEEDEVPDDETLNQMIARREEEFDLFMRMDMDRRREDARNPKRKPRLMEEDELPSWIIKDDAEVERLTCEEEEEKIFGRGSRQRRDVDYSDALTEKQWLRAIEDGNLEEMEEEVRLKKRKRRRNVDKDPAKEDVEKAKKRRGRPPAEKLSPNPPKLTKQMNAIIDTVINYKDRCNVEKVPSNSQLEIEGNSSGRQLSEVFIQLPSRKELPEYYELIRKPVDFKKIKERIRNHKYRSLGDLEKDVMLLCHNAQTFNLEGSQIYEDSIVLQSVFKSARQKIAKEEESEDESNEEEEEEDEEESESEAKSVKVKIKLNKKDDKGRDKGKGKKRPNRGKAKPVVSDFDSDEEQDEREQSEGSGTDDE
T2 sequence (P63165 whole entry): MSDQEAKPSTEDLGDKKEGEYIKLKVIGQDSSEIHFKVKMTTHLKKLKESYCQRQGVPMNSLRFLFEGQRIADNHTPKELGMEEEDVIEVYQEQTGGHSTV
Sequence of Beta-galactosidase (Q8VNN2 whole entry): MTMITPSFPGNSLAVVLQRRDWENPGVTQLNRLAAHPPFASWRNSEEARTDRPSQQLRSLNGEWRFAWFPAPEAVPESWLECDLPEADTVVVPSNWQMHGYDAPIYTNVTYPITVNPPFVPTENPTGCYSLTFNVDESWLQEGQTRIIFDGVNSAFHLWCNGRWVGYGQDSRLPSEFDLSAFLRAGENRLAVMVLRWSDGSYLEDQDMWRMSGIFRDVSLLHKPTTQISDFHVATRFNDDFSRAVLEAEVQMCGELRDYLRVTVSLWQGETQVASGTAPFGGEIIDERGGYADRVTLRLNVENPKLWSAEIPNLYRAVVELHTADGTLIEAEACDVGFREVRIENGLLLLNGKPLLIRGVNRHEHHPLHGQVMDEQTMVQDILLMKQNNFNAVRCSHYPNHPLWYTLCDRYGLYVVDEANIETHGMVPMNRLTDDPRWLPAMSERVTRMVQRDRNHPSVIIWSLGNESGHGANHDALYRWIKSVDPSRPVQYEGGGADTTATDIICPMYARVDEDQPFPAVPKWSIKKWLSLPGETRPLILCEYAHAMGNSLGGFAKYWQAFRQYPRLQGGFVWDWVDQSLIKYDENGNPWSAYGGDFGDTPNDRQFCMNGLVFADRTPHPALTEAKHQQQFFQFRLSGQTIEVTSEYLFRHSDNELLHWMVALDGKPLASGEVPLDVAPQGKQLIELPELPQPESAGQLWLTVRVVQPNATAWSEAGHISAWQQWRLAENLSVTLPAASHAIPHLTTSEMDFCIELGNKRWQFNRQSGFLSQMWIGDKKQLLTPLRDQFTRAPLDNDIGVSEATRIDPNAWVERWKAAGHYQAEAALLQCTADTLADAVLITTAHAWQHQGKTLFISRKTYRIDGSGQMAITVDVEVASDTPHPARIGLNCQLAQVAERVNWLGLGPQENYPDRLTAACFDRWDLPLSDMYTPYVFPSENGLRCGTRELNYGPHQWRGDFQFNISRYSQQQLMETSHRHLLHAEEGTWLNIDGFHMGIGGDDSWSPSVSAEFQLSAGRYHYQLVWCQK
Sequence of Paired box protein Pax-8 (Q06710 whole entry): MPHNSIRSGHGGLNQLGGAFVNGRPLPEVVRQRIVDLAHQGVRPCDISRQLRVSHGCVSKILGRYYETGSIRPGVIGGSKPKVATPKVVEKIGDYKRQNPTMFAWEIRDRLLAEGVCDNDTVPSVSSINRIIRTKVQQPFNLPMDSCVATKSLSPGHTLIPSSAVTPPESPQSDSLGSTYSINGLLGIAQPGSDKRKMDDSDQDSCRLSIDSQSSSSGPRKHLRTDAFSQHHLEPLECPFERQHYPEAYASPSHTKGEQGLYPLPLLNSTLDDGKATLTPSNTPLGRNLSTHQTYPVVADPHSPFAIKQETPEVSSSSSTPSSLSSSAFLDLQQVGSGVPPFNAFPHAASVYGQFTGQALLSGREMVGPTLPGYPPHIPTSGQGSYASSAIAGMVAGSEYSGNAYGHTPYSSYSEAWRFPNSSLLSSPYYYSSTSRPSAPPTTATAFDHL
Sequence of Nonstructural protein 1 (Q194T2 whole entry): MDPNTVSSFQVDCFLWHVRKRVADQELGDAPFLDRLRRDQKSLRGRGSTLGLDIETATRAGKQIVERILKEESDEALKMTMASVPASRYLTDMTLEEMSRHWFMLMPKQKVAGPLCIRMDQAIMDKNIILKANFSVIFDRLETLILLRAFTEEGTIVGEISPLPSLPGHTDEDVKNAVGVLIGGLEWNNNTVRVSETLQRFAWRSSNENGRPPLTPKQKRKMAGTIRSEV

## Cc1cc(NC(=O)c2ccco2)ncc1NC(=O)Cc1ccccc1
[1]
  EC50: > 91.2 µM (inactive)
[2]
  EC50: > 91.2 µM (inactive)

## C[C@H](CO)N1C[C@H](C)[C@H](CN(C)Cc2ccc(C(=O)Nc3ccccc3N)cc2)Oc2c(NS(=O)(=O)c3ccccc3)cccc2C1=O
[3]
  AC50: 2.19 µM (active)

## CCCCCCCCOC(=O)/C=C/c1c(C)nc(O)nc1O
HEK293
  AC50: 2.59 µM (active)
Streptokinase A
  EC50: 2.38 µM (active)
Streptococcus
  EC50: > 150 µM (not active)
[4]
  EC50: 1.76 µM (active)

## COc1ccc(C(=O)Nc2ccccc2C(=O)NC(Cc2ccc(O)cc2)C(=O)NNC(=O)c2ccc(C)cc2)cc1 (centres undefined)
[5]
  IC50: > 66.6 µM (inactive)
[6]
  IC50: 2.32 µM (active)

## C[C@@H]1CN([C@@H](C)CO)C(=O)Cc2cc(NC(=O)Nc3ccccc3)ccc2O[C@@H]1CN(C)Cc1ccc(Cl)c(Cl)c1
[3]
  AC50: 3.92 µM (active)

## C[C@H](CO)N1C[C@H](C)[C@H](CN(C)Cc2ccc(-c3ccccc3)cc2)Oc2ccc(NC(=O)Nc3ccc(C(F)(F)F)cc3)cc2CC1=O
[3]
  AC50: 2.21 µM (active)

## COc1ccc(NC(=O)CC2C(=O)N(C)C(=S)N2Cc2cccs2)cc1 (centres undefined)
Fatty acid synthase
  IC50: 15.8 µM (active)

## O=c1ccc2ccccc2c2ccccc12
[7]
  IC50: 6.6 µM (active)
Paired box protein Pax-8
  AC50: 6.07 µM (active)

## COc1ccc2sc3cccc(NCCN(C)C)c3c(=O)c2c1
[1]
  EC50: > 91.2 µM (inactive)
[8]
  AC50: 0.683 µM (active)
[2]
  EC50: > 10.1 µM (inactive)

## CCN(CC)CCNC(=O)C(Cl)=C1C(Cl)=C(Cl)C(Cl)=C1Cl
[1]
  EC50: > 91.2 µM (inactive)
[2]
  EC50: > 91.2 µM (inactive)

## COc1ccc(C(=O)CNc2ccccc2CO)cc1
Beta-galactosidase
  EC50: > 40 µM (inactive)
[9]
  IC50: 26.1 µM (not active)

## NC(Cc1ccc(O)cc1)C(=O)NN=Cc1ccc(N(CCCl)CCCl)cc1 (centres undefined)
HEK293
  AC50: 31.4 µM (active)
[10]
  EC50: > 53 µM (inactive)
[11]
  IC50: > 47.1 µM (inactive)

## O=C/C=C/c1c(-c2ccccc2)cc2oc3ccccc3cc1-2
[12]
  EC50: > 260 µM (inactive)
[13]
  AC50: 10.4 µM (active)
Nonstructural protein 1
  IC50: 37.1 µM (active)
Vero
  CC50: > 40 µM (active)

## CN(C)/C=N/c1c(Br)cc(Br)c2nonc12
[14]
  IC50: 21.3 µM (active)
[15]
  IC50: 10.2 µM (active)
[16]
  IC50: > 50 µM (not active)

## NS(=O)(=O)c1ccc(CCNC(=O)COC(=O)c2ccc([N+](=O)[O-])o2)cc1
[14]
  IC50: 6.46 µM (active)
[15]
  IC50: 9.2 µM (active)

## C[C@H](CO)N1C[C@H](C)[C@@H](CN(C)CC2CCCCC2)Oc2c(NC(=O)Nc3ccc(C(F)(F)F)cc3)cccc2C1=O
[3]
  AC50: 3.48 µM (active)
